Test results: patent US12404275B2, “Pyrazolopyrazine derived compounds, pharmaceutical composition and use thereof” (PrimeGene (Beijing) Co., Ltd., priority 2019, dated 2025)

Key:
Format in all cases: biochemical
JAK2 = JAK2 (Homo sapiens, UniProt O60674); assay: Mobility shift assay, inhibitory activity on JAK2 kinase; conditions: JAK2 0.125 nM, ATP 1 mM, 3 μM Kinase Substrate 30
Description: (§1) Inhibitory Activities of the Compounds on JAK1, JAK2, JAK3 and Tyk2 (IC50)
(§2) The inhibitory activity of compounds on JAK family kinase was analyzed with Mobility shift assay. The screening platform is MSA based microfluidic chip technology, which applies the basic concept of capillary electrophoresis to microfluidic environment. The substrate used in the experiment is a poly-peptide labeled with fluorescent. Under the catalysis of kinase in the reaction system, the substrate is transformed into a product, with the charge changed accordingly. MSA technology could detect the substrate and the product with different charge separately.
(§3) A compound (powder) was dissolved in 100% DMSO to prepare a 10 mM storage solution. […] Detection in duplicate. Baricitinib (Selleckchem, Cat. S2851) was used as positive control. The serially diluted compound was mixed with JAK1/JAK2/JAK3/Tyk2 kinase (Cama, Cat. 08-144/08-045/08-046/08-147) with final concentration of 5 nM/0.125 nM/0.5 nM/2.5 nM in a Optiplate-384F plate and incubated at room temperature for 10 minutes. After that, ATP with final concentration of 1 mM and 3 μM Kinase Substrate 30 (GL Biochem, Cat. 117885) were added and mixed well. The reaction was carried out at room temperature for 20 min. Stop test solution was added to stop the reaction and the conversion rate was read by Caliper EZ Reader II.
(§4) Conversion %_sample: the conversion rate reading of the sample;
(§5) Conversion %_min: mean value of negative control, representing the conversion rate reading without kinase activity;
(§6) Coversion %_max: mean value of positive control, representing the conversion rate reading without compound inhibition.

Tyk2 [1] = assay: Mobility shift assay, inhibitory activity on Tyk2 kinase; conditions: ratio of JAK2 IC50 to TyK2 IC50
Description: as §1, §2, §3, §4, §5, §6

Tyk2 [2] = molecular target: Tyk2 (Homo sapiens, UniProt P29597); assay: as above; conditions: mobility shift assay; Tyk2 2.5 nM; ATP 1 mM; 3 μM Kinase Substrate 30
Description: as §1, §2, §3, §4, §5, §6

Row | Compound | IC50 (JAK2) [nM] | Selectivity of JAK2/TyK2 (Tyk2 [1]) | IC50 (Tyk2 [2]) [nM]
1 | CCS(=O)(=O)N1CC(CC#N)(n2cc(-c3nc(-c4cnn(C)c4)cn4nccc34)c(N)n2)C1 [Example 2, 2-(3-(3-amino-4-(6-(1-methyl-TH-pyrazol-4-yl)pyrazolo[1,5-a]pyrazin-4-yl)-1H-pyrazol-1-yl)-1-(ethylsulfonyl)azetidin-3-yl)acetonitrile] | 64 | 168 | 0.38
2 | Cn1cc(-c2cn3nccc3c(-c3cn([C@]4(CC#N)C[C@H](C#N)C4)c4ccncc34)n2)cn1 [Example 47, (1s,3s)-3-(cyanomethyl)-3-(3-(6-(1-methyl-1H-pyrazol-4-yl)pyrazolo[1,5-a]pyrazin-4-yl)-1H-pyrrolo[3,2-c]pyridin-1-yl)cyclobutane-1-carbonitrile] |  |  | 186
3 | CNc1nn([C@]2(CC#N)C[C@@H](C#N)C2)cc1-c1nc(-c2cnn(C)c2)cn2nccc12 [Example 38, (1r,3r)-3-(cyanomethyl)-3-(4-(6-(1-methyl-1H-pyrazol-4-yl)pyrazolo[1,5-a]pyrazin-4-yl)-3-(methylamino)-1H-pyrazol-1-yl)cyclobutane-1-carbonitrile] | 6.7 | 20 | 0.33
4 | Cn1cc(-c2cc(-c3cn([C@]4(CC#N)C[C@@H](C#N)C4)nc3N)c3ccnn3c2)cn1 [Example 42, (1r,3r)-3-(3-amino-4-(6-(1-methyl-1H-pyrazol-4-yl)pyrazolo[1,5-a]pyridin-4-yl)-1H-pyrazol-1-yl)-3-(cyanomethyl)cyclobutane-1-carbonitrile] |  |  | 375
5 | Cn1cc(-c2cn3ncnc3c(-c3cn([C@]4(CC#N)C[C@@H](C#N)C4)nc3N)n2)cn1 [Example 41, (1r,3r)-3-(3-amino-4-(6-(1-methyl-1H-pyrazol-4-yl)-[1,2,4]triazolo[1,5-a)pyrazin-8-yl)-1H-pyrazol-1-yl)-3-(cyanomethyl)cyclobutane-1-carbonitrile] |  |  | 37
6 | Cn1cc(-c2cc(-c3cn([C@]4(CC#N)C[C@H](C#N)C4)nc3N)c3ccnn3c2)cn1 [Example 43, (is, 3s)-3-(3-amino-4-(6-(1-methyl-TH-pyrazol-4-yl)pyrazolo[1,5-a]pyridin-4-yl)-1H-pyrazol-1-yl)-3-(cyanomethyl)cyclobutane-1-carbonitrile] |  |  | 43
7 | CC(C)S(=O)(=O)N1CC(CC#N)(n2cc(-c3nc(-c4cnn(C)c4)cn4nccc34)c(N)n2)C1 [Example 3, 2-(3-(3-amino-4-(6-(1-methyl-1H-pyrazol-4-yl)pyrazolo[1,5-a]pyrazin-4-yl)-1H-pyrazol-1-yl)-1-(isopropylsulfonyl)azetidin-3-yl)acetonitrile] | 77 | 36.6 | 2.1
8 | CN(C)c1nn([C@]2(CC#N)C[C@@H](C#N)C2)cc1-c1nc(-c2cnn(C)c2)cn2nccc12 [Example 39, (1r,3r)-3-(cyanomethyl)-3-(3-(dimethylamino)-4-(6-(1-methyl-1H-pyrazol-4-yl)pyrazolo[1,5-a]pyrazin-4-yl)-1H-pyrazol-1-yl)cyclobutane-1-carbonitrile] | 200 | 54 | 3.7
9 | Cn1cc(-c2cn3nccc3c(-c3cn([C@]4(CC#N)C[C@H](C#N)C4)c4ncncc34)n2)cn1 [Example 50, (1r,3r)-3-(cyanomethyl)-3-(5-(6-(1-methyl-1H-pyrazol-4-yl)pyrazolo[1,5-a]pyrazin-4-yl)-7H-pyrrolo[2,3-d]pyrimidin-7-yl)cyclobutane-1-carbonitrile] | 10 | 24.4 | 0.41
10 | CC(=O)Nc1nn([C@]2(CC#N)C[C@@H](C#N)C2)cc1-c1nc(-c2cnn(C)c2)cn2nccc12 [Example 40, N-(1-((1r,3r)-3-cyano-1-(cyanomethyl)cyclobutyl)-4-(6-(1-methyl-1H-pyrazol-4-yl)pyrazolo[1,5-a]pyrazin-4-yl)-1H-pyrazol-3-yl)acetamide] |  |  | 139
11 | Cn1cc(-c2cn3nccc3c(-c3cn([C@]4(CC#N)C[C@H](C#N)C4)nc3N)n2)cn1 [Example 10, (1s,3s)-3-(3-amino-4-(6-(1-methyl-1H-pyrazol-4-yl)pyrazolo[1,5-a]pyrazin-4-yl)-1H-pyrazol-1-yl)-3-(cyanomethyl)cyclobutyl-1-carbonitrile] | 0.25 |  | 0.13
12 | Cn1cc(-c2cn3nccc3c(-c3cn([C@]4(CC#N)C[C@H](C#N)C4)c4ncncc34)n2)cn1 [Example 49, (1s,3s)-3-(cyanomethyl)-3-(5-(6-(1-methyl-1H-pyrazol-4-yl)pyrazolo[1,5-a]pyrazin-4-yl)-7H-pyrrolo[2,3-d]pyrimidin-7-yl)cyclobutane-1-carbonitrile] |  |  | 118
13 | CC(C)S(=O)(=O)N1CC(CC#N)(n2cc(-c3nc(-c4cnn(C)c4)cn4ncc(C#N)c34)c(N)n2)C1 [Example 4, 4-(3-amino-1-(3-(cyanomethyl)-1-(isopropylsulfonyl)azetidin-3-yl)-1H-pyrazol-4-yl)-6-(1-methyl-1H-pyrazol-4-yl)pyrazolo[1,5-a]pyrazine-3-carbonitrile] |  |  | 1760
14 | Cn1cc(-c2cn3nccc3c(-c3cn([C@]4(CC#N)C[C@@H](C#N)C4)c4ccncc34)n2)cn1 [Example 48, (1r,3r)-3-(cyanomethyl)-3-(3-(6-(1-methyl-1H-pyrazol-4-yl)pyrazolo[1,5-a]pyrazin-4-yl)-1H-pyrrolo[3,2-c]pyridin-1-yl)cyclobutane-1-carbonitrile] | 8.1 | 22.5 | 0.36
15 | Cn1cc(-c2cn3nccc3c(-c3cn([C@]4(CC#N)C[C@@H](C#N)C4)nc3N)n2)cn1 [Example 9, (1r,3r)-3-(3-amino-4-(6-(1-methyl-1H-pyrazol-4-yl)pyrazolo[1,5-a]pyrazin-4-yl)-1H-pyrazol-1-yl)-3-(cyanomethyl)cyclobutyl-1-carbonitrile] | 14 |  | 0.17
16 | Cn1cc(-c2cn3nccc3c(-c3cn(C4(CC#N)CN(CC#N)C4)nc3N)n2)cn1 [Example 1, 2,2′-(3-(3-amino-4-(6-(1-methyl-1H-pyrazol-4-yl)pyrazolo[1,5-a]pyrazine-4-yl)-1H-pyrazol-1-yl)azetidine-1,3-diyl)diacetonitrile] | 88 | 210 | 0.42
